Assay results published in patent publication US12064413B2, “Methods of treating melanoma with S-equol” (The Board of Regents of the University of Texas System, priority 2018, dated 2024).
“Also recorded” adds a separate entry of the source. Like-named read-outs stand apart in the source and are kept apart here.

What was measured:
cytochrome oxidase (COX) = details: brains from ovariectomized mice; cited from earlier work
melanoma = experiment: Pilot biomarker clinical study of Ki67 in melanoma subjects (Example 7); assay type: in vivo, human; details: oral S-equol 50 mg twice daily for 10-21 days; 20 subjects with melanoma
Description: A pilot biomarker clinical study is performed in 20 subjects with documented melanoma to determine the effect of the ERβ agonist S-equol on Ki67 an indicator of tumor cell proliferation. Tumor cell proliferation is measured by immunohistological staining for Ki-67. Ki-67 is encoded by the gene MKI67 gene and is required to maintain individual mitotic chromosomes dispersed in the cytoplasm following nuclear envelope disassembly. Measuring the fraction of Ki-67-positive cells in a tumor is known to be a reliable parameter for assessing cancer patient prognosis. Subjects with TNBC are known to have very high levels of Ki67.
Patients enrolled in the study receive a history, physical, laboratory assessment, radiological imaging, and diagnostic biopsies. Immunohistochemistry (IHC) of Ki67 (proliferation marker), total ERβ, and pY36-ERβ (phosphorylated ERβ), B7H1 (also known as PDL-1) and MIA and S100B are conducted using core needle biopsy tissue samples prior to treatment. Patients are given oral S-equol 50 mg, twice daily for approximately two weeks (10-21 days) prior to the scheduled oncologic surgeries or start of primary systemic therapy. […]
A standard procedure for acquiring core biopsy is utilized for determining melanoma prior to enrollment. […] The tissue samples are sent for staining of total and pY36, ERβ and Ki67, and analyzed. […]

rat hippocampal neurons = details: cited from earlier work
[1] = system: B16 melanoma tumor cell line; experiment: B16 melanoma tumor challenge in mice, S-equol and anti-PD-1 antibody alone or combined; assay type: in vivo; details: for tumor volume: anti-PD-1 250 μg every 3 days i.p., S-equol 50 mg/kg per day oral gavage
Description: FIG. 4. A schema for combination therapy. Mice were administered one of: (1) vehicle+rat IgG2a; (2)S-equol+rat IgG2a; (3) vehicle+anti-PD-1 antibody; or (4)S-equol+anti-PD-1 antibody. Mice receiving anti-PD-1 antibody were given 250 μg every 3 days, intraperitoneally, and mice receiving S-equol were given 50 mg/kg per day by oral gavage. Treatment started 7 days after tumor challenge with B16 melanoma.
Melanoma cell line B16 was tested to determine the effects of a PD-1 inhibitor, S-equol and a combination of the two therapies on tumor growth. This experimental design includes four arms: (1) controls, (2) αPD-1, (3)S-cquol, and (4) αPD-1+S-equol (FIG. 4) by injecting into mice 5×10^5 cells subcutaneously. Antibodies were administered α-PD-1: 250 μg/mice by i.p. injection every 3 days and S-equol was administered at 50 mg/kg/day by oral gavage. Treatment began 7 day after tumor challenge. Tumor growth trajectories were compared within treated mice using a repeated measures linear mixed model. The primary outcome was the logarithm of the tumor size, and the test statistic is the treatment X time interaction. Tumors were measured about 10 times. The number of recipient mice use used in the studies (n=6 per group) was based on the above study.

B16 cells = experiment: B16 tumor growth in mice with daily subcutaneous S-equol (Example 6); assay type: in vivo; details: S-equol 20 or 60 mg/kg per day s.c. vs PBS vehicle; start at tumor mass 50 to 80 mm^3
Description: Further work in a preclinical animal model supports the notion of using S-cquol to treat melanoma. In immunocompromised mouse experiments, using B16, a murine tumor cell line know to be useful to study human melanoma metastasis and solid tumor formation, growth of tumors is suppressed with S-equol treatment compared to control. 0.5×10^6 B16 cells are injected into normal BL mice. When the tumor masses reach 50 to 80 mm^3 (about one week after the inoculation), the mice are given daily subcutaneous injections of S-equol (20 or 60 mg/kg per day) or PBS as a vehicle control. Tumor development is followed by caliper measurements along two orthogonal axes: length (L) and width (W) and volume (V) is estimated by the formula V=[L×(W^2)]/2. Tumors harvested from mice are fixed in 10% neutral-buffered formalin, dehydrated, embedded in paraffin, and sectioned at 3 μm thickness. Representative tumor sections from vehicle control and S-equol-treated mice are tested for Ki-67 expression to assess cell proliferation, and for ERβ pY36. Statistical significance in the experiments is assessed by two-tailed Student's t test. In all assays, p<0.05 is considered statistically significant.

[2] = system: triple negative breast cancer (TNBC); details: cited from earlier work

Question: What does the source list for Oc1ccc([C@H]2COc3cc(O)ccc3C2)cc1 [S-equol]?
Answer: COX1 protein levels (cytochrome oxidase (COX)): increase; cytochrome oxidase (COX) activity (cytochrome oxidase (COX)): increase; Ki67 (tumor cell proliferation, IHC) pre- vs post-treatment (melanoma): measurable decrease; also recorded: measurable decline; respiratory and maximal glycolysis fluxes (rat hippocampal neurons): increase; effect on anticancer immunotherapy ([1]; Example 4, FIGS. 6-9, n=6 per group): boost anticancer immunotherapy; tumor volume ([1]; FIG. 6, over 12 days post-challenge): reduce tumor volume compared to control; tumor volume ([1]; FIG. 7, over 19 days post-challenge): reduce tumor volume compared to control; tumor weight ([1]; FIG. 8A, mice challenged with B16 melanoma): reduce tumor weight compared to control; tumor volume ([1]; FIG. 9A, over 16 days (title) / 12 days post-challenge): reduce tumor volume compared to control; growth of tumors (B16 cells): suppressed

Question: For atezolizumab, which response rate ([2]; 21 evaluable, PD-L1 expressing TNBC tumors) is on record?
Answer: 19%

Question: Which response rate ([2]; 168 TNBC tumors unselected for PD-L1 expression) does the source give for avelumab here?
Answer: 8.6%

Question: With pembrolizumab as the compound, how does the response rate ([2]; Phase 1 study, 27 women with heavily pretreated, chemotherapy resistant, metastatic TNBC that expressed PD-L1) read?
Answer: 18.4%
